Assay results published in patent US12281108B2, “Pyrrolidinone derivatives as formyl peptide 2 receptor agonists” (BRISTOL-MYERS SQUIBB COMPANY, priority 2018, dated 2025).
pEC50: −log10 of the molar value.

Biological target: T1, human FPR2 receptors (Homo sapiens, UniProt P25090)
T1 sequence (P25090 1-351): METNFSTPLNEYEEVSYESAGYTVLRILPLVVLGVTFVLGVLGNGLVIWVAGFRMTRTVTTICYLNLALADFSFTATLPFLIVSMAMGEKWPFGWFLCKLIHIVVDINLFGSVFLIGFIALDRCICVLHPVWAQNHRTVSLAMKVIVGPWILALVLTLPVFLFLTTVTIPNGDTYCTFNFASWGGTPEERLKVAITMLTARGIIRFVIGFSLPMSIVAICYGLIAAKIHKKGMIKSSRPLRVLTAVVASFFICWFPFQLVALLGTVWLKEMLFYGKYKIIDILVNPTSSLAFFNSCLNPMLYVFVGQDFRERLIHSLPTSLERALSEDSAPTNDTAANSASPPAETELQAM
Assay: FPR2 cAMP assay in CHO cells overexpressing human FPR2 (HTRF)
Type: cell-based
Conditions: hFPR2 assay; potency bins; read-out: hFPR2 agonist activity EC50
Description: N-formyl peptide receptors (FPRs) are a family of chemo attractant receptors that facilitate leukocyte response during inflammation. FPRs belong to the seven-transmembrane G protein-coupled receptor superfamily and are linked to inhibitory G-proteins (Gi). Three family members (FPR1, FPR2 and FPR3) have been identified in humans and are predominantly found in myeloid cells with varied distribution and have also been reported in multiple organs and tissues. After agonist binding, the FPRs activate a multitude of physiological pathways, such as intra cellular signaling transduction, Ca^2+ mobilization and transcription. The family interacts with a diverse set of ligands that includes proteins, polypeptides and fatty acid metabolites which activate both pro-inflammatory and pro-resolution downstream responses. FPR2 and FPR1 Cyclic Adenosine Monophosphate (cAMP) Assays were used to measure the in vitro activity of the compounds disclosed in this application.
FPR2 and FPR1 Cyclic Adenosine Monophosphate (cAMP) Assays. A mixture of forskolin (5 μM final for FPR2 or 10 μM final for FPR1) and IBMX (200 μM final) were added to 384-well Proxiplates (Perkin-Elmer) pre-dotted with test compounds in DMSO (1% final) at final concentrations in the range of 0.020 nM to 100 μM. Chinese Hamster Ovary cells (CHO) overexpressing human FPR1 or human FPR2 receptors were cultured in F-12 (Ham's) medium supplemented with 10% qualified FBS, 250 μg/ml zeocin and 300 μg/ml hygromycin (Life Technologies). Reactions were initiated by adding 2,000 human FPR2 cells per well or 4,000 human FPR1 cells per well in Dulbecco's PBS (with calcium and magnesium) (Life Technologies) supplemented with 0.1% BSA (Perkin-Elmer). The reaction mixtures were incubated for 30 min at room temperature. The level of intracellular cAMP was determined using the HTRF HiRange cAMP assay reagent kit (Cisbio) according to manufacturer's instruction. Solutions of cryptate conjugated anti-cAMP and d2 flurorophore-labelled cAMP were made in a supplied lysis buffer separately. Upon completion of the reaction, the cells were lysed with equal volume of the d2-cAMP solution and anti-cAMP solution. After a 1-h room temperature incubation, time-resolved fluorescence intensity was measured using the Envision (Perkin-Elmer) at 400 nm excitation and dual emission at 590 nm and 665 nm. A calibration curve was constructed with an external cAMP standard at concentrations ranging from 1 μM to 0.1 pM by plotting the fluorescent intensity ratio from 665 nm emission to the intensity from the 590 nm emission against cAMP concentrations. The potency and activity of a compound to inhibit cAMP production was then determined by fitting to a 4-parametric logistic equation from a plot of cAMP level versus compound concentrations.

`COc1cc(F)c([C@@H]2CNC(=O)[C@H]2Nc2nnc(-c3ccc(Cl)nc3)s2)c(F)c1` [Example 31, (3S,4R)-3-{[5-(6-chloropyridin-3-yl)-1,3,4-thiadiazol-2-yl]amino}-4-(2,6-difluoro-4-methoxyphenyl)pyrrolidin-2-one] was tested. Which pEC50 did it give?
Its pEC50 is 6.82 to 7.40.

How did the pEC50 turn out when `COc1cc(F)c([C@@H]2CNC(=O)[C@H]2Nc2nnc(-c3ccc(F)cc3)s2)c(F)c1` [Example 32, (3S,4R)-4-(2,6-difluoro-4-methoxyphenyl)-3-{[5-(4-fluorophenyl)-1,3,4-thiadiazol-2-yl]amino}pyrrolidin-2-one] was run?
Its pEC50 is 6.82 to 7.40.

How did the pEC50 turn out when `COc1cc(F)c([C@@H]2CNC(=O)[C@H]2Nc2nnc(-c3ccc(C(F)(F)F)nc3)s2)c(F)c1` [Example 33, (3S,4R)-4-(2,6-difluoro-4-methoxyphenyl)-3-({5-[6-(trifluoromethyl)pyridin-3-yl]-1,3,4-thiadiazol-2-yl}amino)pyrrolidin-2-one] was run?
Its pEC50 is 6.00 to 6.82.

How did the pEC50 turn out when `CCCCOc1ccc(-c2nnc(N[C@@H]3C(=O)NC[C@H]3c3c(F)cc(OC)cc3F)o2)cc1` [Example 34, (3S,4R)-3-{[5-(4-butoxyphenyl)-1,3,4-oxadiazol-2-yl]amino}-4-(2,6-difluoro-4-methoxyphenyl)pyrrolidin-2-one] was run?
Its pEC50 is 6.82 to 7.40.

How did the pEC50 turn out when `COc1cc(F)c([C@@H]2CNC(=O)[C@H]2Nc2nnc(-c3ccc(Oc4ccccc4)cc3)o2)c(F)c1` [Example 35, (3S,4R)-4-(2,6-difluoro-4-methoxyphenyl)-3-{[5-(4-phenoxyphenyl)-1,3,4-oxadiazol-2-yl]amino}pyrrolidin-2-one] was run?
The pEC50 was ≥ 7.40.

How did the pEC50 turn out when `COc1cc(F)c([C@@H]2CNC(=O)[C@H]2Nc2nnc(-c3ccc(OC(F)F)cc3)o2)c(F)c1` [Example 37, (3S,4R)-4-(2,6-difluoro-4-methoxyphenyl)-3-({5-[4-(difluoromethoxy)phenyl]-1,3,4-oxadiazol-2-yl}amino)pyrrolidin-2-one] was run?
The pEC50 was 6.00 to 6.82.

How did the pEC50 turn out when `COc1cc(F)c([C@@H]2CNC(=O)[C@H]2Nc2nnc(-c3ccc(C4CC4)cc3)o2)c(F)c1` [Example 38, (3S,4R)-3-{[5-(4-cyclopropylphenyl)-1,3,4-oxadiazol-2-yl]amino}-4-(2,6-difluoro-4-methoxyphenyl)pyrrolidin-2-one] was run?
The pEC50 was 6.00 to 6.82.

How did the pEC50 turn out when `COc1cc(F)c([C@@H]2CNC(=O)[C@H]2Nc2nnc(-c3ccc(C(C)C)cc3)o2)c(F)c1` [Example 39, (3S,4R)-4-(2,6-difluoro-4-methoxyphenyl)-3-({5-[4-(propan-2-yl)phenyl]-1,3,4-oxadiazol-2-yl}amino)pyrrolidin-2-one] was run?
The pEC50 was 6.00 to 6.82.

With `COc1cc(F)c([C@@H]2CNC(=O)[C@H]2Nc2nnc(-c3ccc(Oc4ccc(Cl)cc4)cc3)o2)c(F)c1` [Example 40, (3S,4R)-3-({5-[4-(4-chlorophenoxy)phenyl]-1,3,4-oxadiazol-2-yl}amino)-4-(2,6-difluoro-4-methoxyphenyl)pyrrolidin-2-one] as the molecule, how does the pEC50 read?
Its pEC50 is ≥ 7.40.

`COc1cc(F)c([C@@H]2CNC(=O)[C@H]2Nc2nnc(C3CC3c3ccc(Cl)cc3)o2)c(F)c1` (stereo partly drawn) [Example 41, (3S,4R)-3-({5-[2-(4-chlorophenyl)cyclopropyl]-1,3,4-oxadiazol-2-yl}amino)-4-(2,6-difluoro-4-methoxyphenyl)pyrrolidin-2-one] was tested. Which pEC50 did it give?
The pEC50 was ≥ 7.40.

`COc1cc(F)c([C@@H]2CNC(=O)[C@H]2Nc2nnc(C3CC3c3cc(F)cc(F)c3)o2)c(F)c1` (stereo partly drawn) [Example 42, (3S,4R)-4-(2,6-difluoro-4-methoxyphenyl)-3-({5-[2-(3,5-difluorophenyl)cyclopropyl]-1,3,4-oxadiazol-2-yl}amino)pyrrolidin-2-one] was tested. Which pEC50 did it give?
Its pEC50 is 6.82 to 7.40.

With `COc1cc(F)c([C@@H]2CNC(=O)[C@H]2Nc2nnc(C3CC3c3ccccc3OC)o2)c(F)c1` (stereo partly drawn) [Example 44, (3S,4R)-4-(2,6-difluoro-4-methoxyphenyl)-3-({5-[2-(2-methoxyphenyl)cyclopropyl]-1,3,4-oxadiazol-2-yl}amino)pyrrolidin-2-one] as the molecule, how does the pEC50 read?
The pEC50 was 6.82 to 7.40.

With `COc1cc(F)c([C@@H]2CNC(=O)[C@H]2Nc2nnc(C3CC3c3cccc(Cl)c3)o2)c(F)c1` (stereo partly drawn) [Example 45, (3S,4R)-3-({5-[2-(3-chlorophenyl)cyclopropyl]-1,3,4-oxadiazol-2-yl}amino)-4-(2,6-difluoro-4-methoxyphenyl)pyrrolidin-2-one] as the molecule, how does the pEC50 read?
The pEC50 was ≥ 7.40.

How did the pEC50 turn out when `COc1cc(F)c([C@@H]2CNC(=O)[C@H]2Nc2nnc(C3CC3c3ccc(Cl)cc3F)o2)c(F)c1` (stereo partly drawn) [Example 46, (3S,4R)-3-({5-[2-(4-chloro-2-fluorophenyl)cyclopropyl]-1,3,4-oxadiazol-2-yl}amino)-4-(2,6-difluoro-4-methoxyphenyl)pyrrolidin-2-one] was run?
Its pEC50 is ≥ 7.40.

With `COc1cc(F)c([C@@H]2CNC(=O)[C@H]2Nc2nnc(-c3ccc(Oc4cc(C#N)ccn4)cc3)o2)c(F)c1` [Example 48, 2-[4-(5-{[(3S,4R)-4-(2,6-difluoro-4-methoxyphenyl)-2-oxopyrrolidin-3-yl]amino}-1,3,4-oxadiazol-2-yl)phenoxy]pyridine-4-carbonitrile] as the molecule, how does the pEC50 read?
Its pEC50 is 6.82 to 7.40.

With `COc1cc(F)c([C@@H]2CNC(=O)[C@H]2Nc2nnc(-c3ccc(Oc4cnccn4)cc3)o2)c(F)c1` [Example 49, (3S,4R)-4-(2,6-difluoro-4-methoxyphenyl)-3-({5-[4-(pyrazin-2-yloxy)phenyl]-1,3,4-oxadiazol-2-yl}amino)pyrrolidin-2-one] as the molecule, how does the pEC50 read?
Its pEC50 is 6.82 to 7.40.

How did the pEC50 turn out when `COc1cc(F)c([C@@H]2CNC(=O)[C@H]2Nc2noc3cc(Cl)ccc23)c(F)c1` [Example 50, (3S,4R)-3-[(6-chloro-1,2-benzoxazol-3-yl)amino]-4-(2,6-difluoro-4-methoxyphenyl)pyrrolidin-2-one] was run?
The pEC50 was ≥ 7.40.

`COc1cc(F)c([C@@H]2CNC(=O)[C@H]2Nc2nnc(C(=O)NCc3ccc(Cl)cc3)o2)c(F)c1` [Example 53, N-[(4-chlorophenyl)methyl]-5-{[(3S,4R)-4-(2,6-difluoro-4-methoxyphenyl)-2-oxopyrrolidin-3-yl]amino}-1,3,4-oxadiazole-2-carboxamide] was tested. Which pEC50 did it give?
The pEC50 was 6.82 to 7.40.

How did the pEC50 turn out when `COc1cc(F)c([C@@H]2CNC(=O)[C@H]2Nc2nnc(C(=O)NCCc3ccc(Cl)cc3)o2)c(F)c1` [Example 54, N-[2-(4-chlorophenyl)ethyl]-5-{[(3S,4R)-4-(2,6-difluoro-4-methoxyphenyl)-2-oxopyrrolidin-3-yl]amino}-1,3,4-oxadiazole-2-carboxamide] was run?
The pEC50 was 6.00 to 6.82.

`COc1cc(F)c([C@@H]2CNC(=O)[C@H]2Nc2nnc(-c3ccc(Oc4ccc(Cl)cn4)cc3)o2)c(F)c1` [Example 55, (3S,4R)-3-[(5-{4-[(5-chloropyridin-2-yl)oxy]phenyl}-1,3,4-oxadiazol-2-yl)amino]-4-(2,6-difluoro-4-methoxyphenyl)pyrrolidin-2-one] was tested. Which pEC50 did it give?
Its pEC50 is ≥ 7.40.

How did the pEC50 turn out when `COc1cc(F)c([C@@H]2CNC(=O)[C@H]2Nc2nnc(-c3ccc(Oc4ccc(C#N)cc4)cc3)o2)c(F)c1` [Example 57, 4-[4-(5-{[(3S,4R)-4-(2,6-difluoro-4-methoxyphenyl)-2-oxopyrrolidin-3-yl]amino}-1,3,4-oxadiazol-2-yl)phenoxy]benzonitrile] was run?
The pEC50 was 6.82 to 7.40.

`COc1cc(F)c([C@@H]2CNC(=O)[C@H]2Nc2nnc(-c3ccc(Oc4cnc(Cl)cn4)cc3)o2)c(F)c1` [Example 60, (3S,4R)-3-[(5-{4-[(5-chloropyrazin-2-yl)oxy]phenyl}-1,3,4-oxadiazol-2-yl)amino]-4-(2,6-difluoro-4-methoxyphenyl)pyrrolidin-2-one] was tested. Which pEC50 did it give?
Its pEC50 is 6.82 to 7.40.

With `COc1cc(F)c([C@@H]2CNC(=O)[C@H]2Nc2nnc(-c3ccc(Oc4ncccc4F)cc3)o2)c(F)c1` [Example 61, (3S,4R)-4-(2,6-difluoro-4-methoxyphenyl)-3-[(5-{4-[(3-fluoropyridin-2-yl)oxy]phenyl}-1,3,4-oxadiazol-2-yl)amino]pyrrolidin-2-one] as the molecule, how does the pEC50 read?
Its pEC50 is 6.82 to 7.40.

`COc1cc(F)c([C@@H]2CNC(=O)[C@H]2Nc2nnc(-c3ccc(Oc4cc(OC)ncn4)cc3)o2)c(F)c1` [Example 62, (3S,4R)-4-(2,6-difluoro-4-methoxyphenyl)-3-[(5-{4-[(6-methoxypyrimidin-4-yl)oxy]phenyl}-1,3,4-oxadiazol-2-yl)amino]pyrrolidin-2-one] was tested. Which pEC50 did it give?
The pEC50 was 6.82 to 7.40.
